In paper PMC9610702, “Synthesis, Characterization, and Biological Evaluation of Tetrahydropyrimidines: Dual-Activity and Mechanism of Action” (Pharmaceutics, 2022):
In brackets after ≈: the same amount, converted by molar mass. Where two headings read alike, the source gives them in different places.

Experiments:
[1] = molecular target: α-glucosidase; test: α-glucosidase inhibitory activity; type: biochemical; conditions: average ± SD of two experiments
Source text: (§1) All materials and methods used for biological examination (antibacterial, antifungal, anticancer, and α-glucosidase inhibitory activities) and crystal structure determination are presented in the Supplementary Materials, File S1.

[2] = tested on: Aspergillus niger; test: antifungal MIC, broth tube dilution; type: cell-based
Source text: (§2) In this paper, the synthesis, characterization, and biological evaluation of the novel tetrahydropyrimidines—THPMs are described. THPMs are well-known for wide pharmacological activities such as antimicrobial, anticancer, antiviral, etc. This research includes obtained results of in vitro antimicrobial, anticancer, and α-glucosidase inhibitory activities of the eleven novel THPMs. An antibiotic assessment was done against five bacteria (two Gram-positive and three Gram-negative) and five fungi by determining the minimal inhibitory concentration (MIC), using the broth tube dilution method. […] The cytotoxic activity was performed on the tumor cell lines (HeLa, K562, and MDA-MB-231) and normal cells (MRC-5). The best antitumor activity was shown by compounds 4b and 4k against HeLa cell lines.
as §1

[3] = tested on: Mucor mucedo; test: antifungal MIC, broth tube dilution; type: cell-based
Source text: as §2, §1

[4] = tested on: Aspergillus flavus; test: antifungal MIC, broth tube dilution; type: cell-based
Source text: as §2, §1

[5] = tested on: Trichophyton mentagrophytes; test: antifungal MIC, broth tube dilution; type: cell-based
Source text: as §2, §1

[6] = tested on: Penicillium italicum; test: antifungal MIC, broth tube dilution; type: cell-based
Source text: as §2, §1

[7] = tested on: Bacillus subtilis; test: antibacterial MIC, broth tube dilution; type: cell-based
Source text: as §2, §1

[8] = tested on: Escherichia coli; test: antibacterial MIC, broth tube dilution; type: cell-based
Source text: as §2, §1

[9] = tested on: Proteus mirabilis; test: antibacterial MIC, broth tube dilution; type: cell-based; conditions: ND = not detected
Source text: as §2, §1

[10] = tested on: Staphylococcus aureus; test: antibacterial MIC, broth tube dilution; type: cell-based
Source text: as §2, §1

[11] = tested on: Klebsiella oxytoca; test: antibacterial MIC, broth tube dilution; type: cell-based
Source text: as §2, §1

[12] = tested on: HeLa cells; test: cytotoxic activity; type: cell-based; conditions: HeLa, three independent experiments in triplicate; for IC50: read-out: IC50 Average ± SD
Source text: (§3) All materials and methods used for biological examination (antibacterial, antifungal, anticancer, and α-glucosidase inhibitory activities) and crystal structure determination are presented in the Supplementary Materials, File S1. The cytotoxic activity of eleven novel compounds was examined against HeLa, K562, MDA-MB-231, and MRC-5. The tested compounds exerted concentration-dependent cytotoxic effects on cell lines. […] Compared to compound 4j, 4k has a methyl group in para position of benzoyl fragment; so, probably this structural difference is responsible for better activity and selectivity of compound 4k on HeLa (43.63 ± 1.49 µM) and K562 (39.11 ± 2.90 µM).

[13] = tested on: MDA-MB-231 cells; test: cytotoxic activity; type: cell-based; conditions: three independent experiments in triplicate, read-out: IC50 Average ± SD
Source text: as §3

[14] = tested on: K562 cells; test: cytotoxic activity; type: cell-based; conditions: K562, three independent experiments in triplicate, read-out: IC50 Average ± SD
Source text: as §3

[15] = tested on: normal human lung fibroblasts MRC-5; test: cytotoxic activity on normal cells; type: cell-based; conditions: MRC5, MRC-5 normal fibroblasts, three independent experiments in triplicate, read-out: IC50 Average ± SD
Source text: as §1
The cytotoxic activity of eleven novel compounds was examined against HeLa, K562, MDA-MB-231, and MRC-5.
The cytotoxic activity was examined against HeLa, K562, MDA-MB-231 cells, and normal human lung fibroblasts MRC-5. […] In addition, the effects of the 4k and 4b on the cell cycle were examined.

Row | SMILES | IC50 [1] | MIC [2] | MIC [3] | MIC [4] | MIC [5] | MIC [6] | MIC [7] | MIC [8] | MIC ([9]; read-out: MIC) | MIC [10] | MIC [11] | IC50 ([12]; Homo sapiens) | IC50 ([13]; Homo sapiens) | IC50 ([14]; Homo sapiens) | IC50 [15] | IC50 Average ± SD [12] | MIC [9] | IC50 [12] | IC50 [13] | IC50 [14]
1 | COC(=O)C1=C(C)N(C)C(=S)NC1c1cc(Br)c(O)c(OC)c1 (stereo not shown) [4a] | 313 ± 7.73 µM | 1620 µg/mL (≈ 4.04 mM) | 1620 µg/mL (≈ 4.04 mM) | 1620 µg/mL (≈ 4.04 mM) | 400 µg/mL (≈ 0.997 mM) | 1620 µg/mL (≈ 4.04 mM) | 3250 µg/mL (≈ 8.1 mM) | 1620 µg/mL (≈ 4.04 mM) | 810 µg/mL (≈ 2.02 mM) | 1620 µg/mL (≈ 4.04 mM) | 1620 µg/mL (≈ 4.04 mM) | 97.4 ± 5.4 µM | 144 ± 8.29 µM | 79 ± 7.49 µM | 187 ± 4.66 µM |  |  |  |  | 
2 | COC(=O)C1=C(C)N(C)C(=S)NC1c1cc(OC)c(O)c([N+](=O)[O-])c1 (stereo not shown) [4c] |  | 810 µg/mL (≈ 2.2 mM) | 1620 µg/mL (≈ 4.41 mM) | 400 µg/mL (≈ 1.09 mM) | 400 µg/mL (≈ 1.09 mM) | 1620 µg/mL (≈ 4.41 mM) | 3250 µg/mL (≈ 8.85 mM) | 1620 µg/mL (≈ 4.41 mM) | 1620 µg/mL (≈ 4.41 mM) | 1620 µg/mL (≈ 4.41 mM) | 1620 µg/mL (≈ 4.41 mM) | > 200 µM | > 200 µM | 180 ± 9.15 µM | 196 ± 5.89 µM | very low cytotoxicity |  |  |  | 
3 | COC(=O)C1=C(C)N(C)C(=S)NC1c1cc(OC)c(OC(C)=O)c([N+](=O)[O-])c1 (stereo not shown) [4d] | 1120 ± 20.6 µM | 1620 µg/mL (≈ 3.96 mM) | 1620 µg/mL (≈ 3.96 mM) | 1620 µg/mL (≈ 3.96 mM) | 400 µg/mL (≈ 0.977 mM) | 1620 µg/mL (≈ 3.96 mM) | 3250 µg/mL (≈ 7.94 mM) | 1620 µg/mL (≈ 3.96 mM) | 810 µg/mL (≈ 1.98 mM) | 810 µg/mL (≈ 1.98 mM) | 1620 µg/mL (≈ 3.96 mM) | > 200 µM | > 200 µM | 165 ± 8.5 µM | 193 ± 10.3 µM | very low cytotoxicity |  |  |  | 
4 | CCC(=O)Oc1ccc(C2NC(=S)N(C)C(C)=C2C(=O)OC)cc1OC (stereo not shown) [4e] | 674.8 ± 5.65 µM | 1620 µg/mL (≈ 4.28 mM) | 1620 µg/mL (≈ 4.28 mM) | 1620 µg/mL (≈ 4.28 mM) | 200 µg/mL (≈ 0.528 mM) | 1620 µg/mL (≈ 4.28 mM) | 3250 µg/mL (≈ 8.59 mM) | 1620 µg/mL (≈ 4.28 mM) |  | 3250 µg/mL (≈ 8.59 mM) | 3250 µg/mL (≈ 8.59 mM) | 197 ± 3.93 µM | > 200 µM | 149 ± 5.74 µM | 128 ± 3.2 µM |  | no inhibitory effect |  |  | 
5 | COC(=O)C1=C(C)N(C)C(=S)NC1c1ccc(OC(=O)C2CC2)c(OC)c1 (stereo not shown) [4f] | 767.9 ± 5.91 µM | 810 µg/mL (≈ 2.07 mM) | 1620 µg/mL (≈ 4.15 mM) | 1620 µg/mL (≈ 4.15 mM) | 200 µg/mL (≈ 0.512 mM) | 1620 µg/mL (≈ 4.15 mM) | 3250 µg/mL (≈ 8.32 mM) | 3250 µg/mL (≈ 8.32 mM) | 1620 µg/mL (≈ 4.15 mM) | 3250 µg/mL (≈ 8.32 mM) | 3250 µg/mL (≈ 8.32 mM) | 135 ± 9.32 µM | 161 ± 9.69 µM | 123 ± 8.52 µM | 196 ± 5.54 µM |  |  |  |  | 
6 | COC(=O)C1=C(C)N(C)C(=S)NC1c1ccc(OC(C)=O)c(OC)c1 (stereo not shown) [4g] | 192 ± 5.95 µM | 1620 µg/mL (≈ 4.45 mM) | 1620 µg/mL (≈ 4.45 mM) | 1620 µg/mL (≈ 4.45 mM) | 400 µg/mL (≈ 1.1 mM) | 1620 µg/mL (≈ 4.45 mM) | 3250 µg/mL (≈ 8.92 mM) | 1620 µg/mL (≈ 4.45 mM) | 810 µg/mL (≈ 2.22 mM) | 3250 µg/mL (≈ 8.92 mM) | 1620 µg/mL (≈ 4.45 mM) | 197 ± 3.55 µM | > 200 µM | 153 ± 2.58 µM | 193 ± 9.59 µM |  |  |  |  | 
7 | CCOc1cccc(C2NC(=S)N(C)C(C)=C2C(=O)OC)c1OC(C)=O (stereo not shown) [4h] | 933 ± 25.2 µM | 1620 µg/mL (≈ 4.28 mM) | 1620 µg/mL (≈ 4.28 mM) | 1620 µg/mL (≈ 4.28 mM) | 810 µg/mL (≈ 2.14 mM) | 1620 µg/mL (≈ 4.28 mM) | 3250 µg/mL (≈ 8.59 mM) | 3250 µg/mL (≈ 8.59 mM) | 3250 µg/mL (≈ 8.59 mM) | 3250 µg/mL (≈ 8.59 mM) | 3250 µg/mL (≈ 8.59 mM) | 121 ± 9.96 µM | 114 ± 12.9 µM | 79.9 ± 6.73 µM | 77.8 ± 2.57 µM |  |  |  |  | 
8 | COC(=O)C1=C(C)N(C)C(=S)NC1c1ccc(OC(=O)c2ccccc2)c(OC)c1 (stereo not shown) [4j, methyl 4-(4′-benzoyloxy-3′-methoxyphenyl)-1,2,3,4-tetrahydro-1,6-dimethyl-2-thioxopyrimidine-5-carboxylate] |  | 1620 µg/mL (≈ 3.8 mM) | 1620 µg/mL (≈ 3.8 mM) | 1620 µg/mL (≈ 3.8 mM) | 400 µg/mL (≈ 0.938 mM) | 1620 µg/mL (≈ 3.8 mM) | 3250 µg/mL (≈ 7.62 mM) | 3250 µg/mL (≈ 7.62 mM) | 1620 µg/mL (≈ 3.8 mM) | 3250 µg/mL (≈ 7.62 mM) | 3250 µg/mL (≈ 7.62 mM) | 78.1 ± 5.78 µM | 123 ± 2.19 µM | 68 ± 6.53 µM | 104 ± 8.61 µM |  |  |  |  | 
9 | OC(Cn1cncn1)(Cn1cncn1)c1ccc(F)cc1F [Fluconazole, reference compound] |  | 500 µg/mL (≈ 1.63 mM) | 1000 µg/mL (≈ 3.27 mM) | 1000 µg/mL (≈ 3.27 mM) | 250 µg/mL (≈ 0.816 mM) | 1000 µg/mL (≈ 3.27 mM) |  |  |  |  |  |  |  |  |  |  |  |  |  | 
10 | [H]/N=C(/N)N[C@H]1[C@H](O)[C@@H](O)[C@H](O[C@@H]2O[C@@H](C)[C@](O)(C=O)[C@H]2O[C@@H]2O[C@@H](CO)[C@H](O)[C@@H](O)[C@@H]2NC)[C@@H](N/C(N)=N\[H])[C@@H]1O [Streptomycin, reference compound] |  |  |  |  |  |  | 16 µg/mL (≈ 0.0275 mM) | 62 µg/mL (≈ 0.107 mM) | 62 µg/mL (≈ 0.107 mM) | 31 µg/mL (≈ 0.0533 mM) | 8 µg/mL (≈ 0.0138 mM) |  |  |  |  |  |  |  |  | 
11 | N.N.[Cl][Pt][Cl] [cisPt, reference compound] |  |  |  |  |  |  |  |  |  |  |  |  |  |  |  |  |  | 4.91 ± 0.74 µM | 14.7 ± 0.36 µM | 6.89 ± 0.21 µM
